Assay results as given in ChEMBL document CHEMBL5518235, “Identification of Novel Series of Potent and Selective Relaxin Family Peptide Receptor 1 (RXFP1) Agonists” (J Med Chem, 2024).
In brackets after ≈: the same amount, converted by molar mass. Activity calls are given as the source filed them. The rule behind the calls is not given here.

Assays:
[1] = Lipophilicity, logD of the compound in 1-octanol and phosphate buffer at pH 7.4 incubated for 3 hrs by shake flask method based LC/MS/MS analysis; assay type: physicochemical; conditions: 1-octanol/phosphate buffer, pH 7.4
[2] = Cytotoxicity against human THP-1 cells assessed as reduction of cell viability incubated for 48 hrs by resazurin reduction assay; assay type: toxicity, cell-based
Bile salt export pump = Bile salt export pump (Homo sapiens, UniProt O95342); test: Inhibition of BSEP (unknown origin) by membrane vesicle assay; assay type: toxicity
IKs channel = test: Inhibition of human IKS channel by automated electrophysiology recording; assay type: toxicity
[3] = Genotoxicity in human A549 upto 1000 uM by micronucleus test; assay type: toxicity, cell-based; conditions: a549, 1000 µM
[4] = target: T1, Leucine-rich repeat-containing G-protein coupled receptor 4 (Homo sapiens, UniProt Q9BXB1); test: Agonist activity at LGR4 (unknown origin) by arrestin technology based assay
T1 sequence (Q9BXB1 whole entry): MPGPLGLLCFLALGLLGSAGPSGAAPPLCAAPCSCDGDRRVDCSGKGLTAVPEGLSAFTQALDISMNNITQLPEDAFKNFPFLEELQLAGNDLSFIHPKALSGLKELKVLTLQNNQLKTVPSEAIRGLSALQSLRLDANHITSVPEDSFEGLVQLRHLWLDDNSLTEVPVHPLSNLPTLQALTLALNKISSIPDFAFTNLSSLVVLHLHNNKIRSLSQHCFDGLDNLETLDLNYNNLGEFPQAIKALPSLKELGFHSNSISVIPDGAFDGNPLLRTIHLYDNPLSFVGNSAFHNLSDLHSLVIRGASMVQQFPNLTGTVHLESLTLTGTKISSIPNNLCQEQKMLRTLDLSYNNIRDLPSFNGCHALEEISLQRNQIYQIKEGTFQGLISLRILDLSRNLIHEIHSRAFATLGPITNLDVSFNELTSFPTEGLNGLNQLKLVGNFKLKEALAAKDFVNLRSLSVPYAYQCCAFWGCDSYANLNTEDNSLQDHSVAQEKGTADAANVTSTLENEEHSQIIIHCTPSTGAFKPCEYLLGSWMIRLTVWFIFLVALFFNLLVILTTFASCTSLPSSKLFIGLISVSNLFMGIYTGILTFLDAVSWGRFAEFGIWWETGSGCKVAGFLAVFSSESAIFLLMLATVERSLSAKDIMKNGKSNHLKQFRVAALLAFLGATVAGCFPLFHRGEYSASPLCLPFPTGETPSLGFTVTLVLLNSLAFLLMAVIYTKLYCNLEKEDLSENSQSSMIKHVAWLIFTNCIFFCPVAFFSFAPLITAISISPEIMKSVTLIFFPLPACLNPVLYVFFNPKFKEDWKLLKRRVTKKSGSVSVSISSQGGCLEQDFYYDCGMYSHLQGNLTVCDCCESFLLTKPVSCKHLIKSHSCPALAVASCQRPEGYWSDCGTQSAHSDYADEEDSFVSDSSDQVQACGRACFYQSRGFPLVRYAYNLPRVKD

[5] = Oral bioavailability in Han Wistar rat at 1.46 micromol/kg by LC-MS/MS analysis; assay type: ADME, organism-based; conditions: in vivo, 1.46 µmol/kg
[6] = Half-life in Han Wistar rat at 0.73 micromol/kg, iv by LC-MS/MS analysis; assay type: ADME, organism-based; conditions: in vivo, dose 0.73 µmol/kg
[7] = Solubility of compound in phosphate buffer at pH 6.5; assay type: physicochemical
[8] = target: T2, Relaxin receptor 1 (Rattus norvegicus) (UniProt Q6R6I6); test: In vivo agonist activity at RXFP1 in Sprague-Dawley rat assessed as hemodynamic effect by measuring increase in heart rate at 1.5 mg/kg, iv administered via bolus followed by 9.0 mg/kg, iv administered via infusion for 3 hrs and measured 1 hrs post washout; assay type: functional, organism-based
T2 sequence (whole entry): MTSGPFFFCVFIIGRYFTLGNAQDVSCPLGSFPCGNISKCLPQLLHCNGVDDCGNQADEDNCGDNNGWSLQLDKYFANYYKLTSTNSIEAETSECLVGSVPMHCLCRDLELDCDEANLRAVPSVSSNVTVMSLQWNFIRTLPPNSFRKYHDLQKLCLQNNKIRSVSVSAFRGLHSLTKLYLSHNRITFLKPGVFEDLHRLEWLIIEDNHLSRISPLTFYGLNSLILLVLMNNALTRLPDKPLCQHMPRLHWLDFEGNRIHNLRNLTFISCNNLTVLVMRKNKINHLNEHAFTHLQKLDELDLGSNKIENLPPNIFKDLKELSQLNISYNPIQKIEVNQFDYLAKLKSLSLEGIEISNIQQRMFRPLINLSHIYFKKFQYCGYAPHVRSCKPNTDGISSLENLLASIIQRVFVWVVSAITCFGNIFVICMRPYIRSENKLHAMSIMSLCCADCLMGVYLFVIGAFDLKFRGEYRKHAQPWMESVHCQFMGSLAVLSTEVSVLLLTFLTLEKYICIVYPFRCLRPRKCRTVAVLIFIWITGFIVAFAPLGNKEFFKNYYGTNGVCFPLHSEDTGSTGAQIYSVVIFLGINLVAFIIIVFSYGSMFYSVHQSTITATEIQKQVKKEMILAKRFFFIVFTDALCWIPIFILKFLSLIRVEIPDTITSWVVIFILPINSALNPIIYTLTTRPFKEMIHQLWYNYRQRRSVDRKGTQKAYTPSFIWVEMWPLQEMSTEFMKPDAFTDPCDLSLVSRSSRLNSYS

[9] = target: T2, Relaxin receptor 1 (Rattus norvegicus); test: In vivo agonist activity at RXFP1 in Sprague-Dawley rat assessed as hemodynamic effect by measuring increase in blood pressure at 1.5 mg/kg, iv administered via bolus followed by 9.0 mg/kg, iv administered via infusion for 3 hrs and measured 1 hrs post washout; assay type: functional, organism-based
[10] = Cytotoxicity against human HepG2 cells cultured under galactose condition assessed as reduction in cell viability; assay type: toxicity, cell-based

Bile salt export pump, sequence (O95342 whole entry): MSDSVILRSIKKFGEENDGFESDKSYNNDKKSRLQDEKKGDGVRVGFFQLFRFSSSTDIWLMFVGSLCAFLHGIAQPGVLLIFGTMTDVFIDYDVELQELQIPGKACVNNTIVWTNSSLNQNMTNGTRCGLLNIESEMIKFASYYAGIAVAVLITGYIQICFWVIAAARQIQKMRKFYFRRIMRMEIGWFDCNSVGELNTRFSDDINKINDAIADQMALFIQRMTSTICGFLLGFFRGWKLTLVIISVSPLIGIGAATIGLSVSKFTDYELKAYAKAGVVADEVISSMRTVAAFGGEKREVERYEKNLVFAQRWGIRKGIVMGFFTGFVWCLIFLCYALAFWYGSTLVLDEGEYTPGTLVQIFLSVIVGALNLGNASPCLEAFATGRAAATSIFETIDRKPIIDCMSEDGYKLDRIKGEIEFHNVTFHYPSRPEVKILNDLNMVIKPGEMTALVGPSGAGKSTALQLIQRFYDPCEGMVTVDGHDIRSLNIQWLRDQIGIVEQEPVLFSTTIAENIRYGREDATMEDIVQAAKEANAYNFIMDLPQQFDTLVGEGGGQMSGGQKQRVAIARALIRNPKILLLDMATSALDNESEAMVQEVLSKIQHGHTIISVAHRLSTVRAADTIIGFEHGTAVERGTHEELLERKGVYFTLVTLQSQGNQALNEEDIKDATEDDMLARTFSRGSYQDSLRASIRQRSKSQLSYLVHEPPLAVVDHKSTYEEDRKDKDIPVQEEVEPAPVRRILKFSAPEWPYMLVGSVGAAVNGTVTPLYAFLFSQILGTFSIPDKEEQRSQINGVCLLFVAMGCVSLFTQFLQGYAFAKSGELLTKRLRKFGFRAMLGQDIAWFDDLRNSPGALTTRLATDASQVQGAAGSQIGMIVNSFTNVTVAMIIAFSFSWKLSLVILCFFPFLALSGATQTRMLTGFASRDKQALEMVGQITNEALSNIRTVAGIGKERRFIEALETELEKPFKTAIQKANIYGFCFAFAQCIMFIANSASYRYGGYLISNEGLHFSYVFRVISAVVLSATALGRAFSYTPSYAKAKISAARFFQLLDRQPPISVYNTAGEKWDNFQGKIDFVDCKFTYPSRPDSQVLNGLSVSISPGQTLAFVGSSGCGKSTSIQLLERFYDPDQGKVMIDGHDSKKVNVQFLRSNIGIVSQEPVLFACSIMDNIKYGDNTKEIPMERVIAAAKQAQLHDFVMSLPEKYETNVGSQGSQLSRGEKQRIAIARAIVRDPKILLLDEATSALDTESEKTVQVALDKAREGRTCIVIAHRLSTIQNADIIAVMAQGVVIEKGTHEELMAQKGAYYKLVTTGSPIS

COc1cc(F)c(O[C@H]2CC[C@@](C)(C(=O)O)CC2)cc1C(=O)N[C@@H]1[C@H]2CC[C@H](C2)[C@@H]1C(=O)Nc1ccc(F)c(S(F)(F)(F)(F)F)c1
logD at 3 h [1]: 4.9
IC50 at 48 h [2]: 15 µM
IC50 (Bile salt export pump): 23 µM
IC50 (IKs channel): > 33 µM
Activity [3]: Non-Toxic
EC50 [4]: 16 µM
bioavailability [5]: 11%
half-life [6]: 2.9 h
solubility [7]: 0.13 µM (≈ 0.0887 µg/mL)
Activity [8]: Active
Activity [9]: Active
IC50 [10]: 37 µM
